Assay results reported in US20100184790A1, “PYRROLO[2,3-B]PYRIDINE COMPOUNDS, AZAINDOLE COMPOUNDS USED FOR SYNTHESIZING SAID PYRROLO[2,3-B]PYRIDINE COMPOUNDS, METHODS FOR THE PRODUCTION THEREOF, AND USES THEREOF” (CENTRE NATIONAL DE LA RECHERCHE SCIENTIFIQUE, priority 2007, published 2010).
Where two headings read alike, the source gives them in different places.

Legend:
CK1δ/ε = CK1δ/ε kinase assay (CK1-specific peptide); assay type: biochemical, porcine; conditions: 15 μM ATP, 30° C.
Procedure: CK1δ/ε was purified from porcine brain by affinity chromatography on an immobilized axin fragment. It was assayed as described for CDK1 but using a CK1-specific peptide substrate.

DYRK1A = DYRK1A (Rattus norvegicus, UniProt Q63470); test: DYRK1A kinase assay (myelin basic protein); assay type: biochemical
SH-SY5Y cells = test: Cell survival, MTS reduction, SH-SY5Y; assay type: cell-based; conditions: Homo sapiens, Table 2, exposed for 24 hours, read-out: IC50 survival of SH-SY5Y cells (MTS reduction)
Procedure: The human neuroblastoma cell line SH-SY5Y was grown in a DMEM medium with L-glutamine originating from Invitrogen (Cergy Pontoise, France), antibiotics and 10% by volume of FCS originating from Invitrogen. […] These compounds were also tested at various concentrations with regard to their effects on SH-SY5Y and HEK293 cells. […] The IC50 values were calculated from the dose-response curves and are given in micromoles (mean±standard deviation of two independent measurements carried out in triplicate). […] The survival of the cells was estimated by the assaying of the degree of reduction of MTS induced by this exposure. […] The ICS© values were calculated from dose-response curves and are given in micromoles in table 3 below.

GSK-3α/β = GSK-3α/β kinase assay (GS-1 peptide); assay type: biochemical, porcine; conditions: 15 μM ATP, 30° C.
Procedure: After incubating at 30° C. for 30 (thirty) minutes, the 25 μl aliquots of the supernatant were treated as described above.

CDK1/cyclin B = CDK1/cyclin B kinase assay (histone H1, [γ-33P]-ATP); conditions: read-out: IC50 CDK1/cyclin B, 15 μM ATP, 30° C.
CDK2/cyclin A = molecular target: T1, CDK2/cyclin A (Homo sapiens, UniProt P24941); test: CDK2/cyclin A kinase assay; assay type: biochemical; conditions: 15 μM ATP, 30° C., histone H1; read-out: IC50 CDK2/cyclinA
T1 construct: made in house; host or cells: insect cells
Procedure: CDK2/cyclin A (human, recombinant, expressed in insect cells) was assayed as described for CDK1/cyclin B.

CDK5/p25 = CDK5/p25 (Homo sapiens, UniProt Q00535); test: CDK5/p25 kinase assay; assay type: biochemical, mammalian
Procedure: CDK5/p25 was reconstituted by mixing equal amounts of recombinant mammalian CDK5 and p25 expressed in E. coli as GST (glutathione S-transferase) fusion protein and purified by affinity chromatography on glutathione-agarose (vectors provided by Doctor L. H. Tsai) (p25 is a truncated version of p35, the 35-kDa CDK5 activator). Its activity was assayed with histone H1 in buffer C as described for CDK1/cyclin B.

CDK9/cyclin T = molecular target: T2, CDK9/cyclin T (Homo sapiens, UniProt P50750); test: CDK9/cyclin T kinase assay; assay type: biochemical; conditions: 15 μM ATP, 30° C., pRB fragment
T2 construct: made in house; host or cells: insect cells

[1] = 15 μM ATP, 30° C., myelin basic protein, read-out: IC50 DYRK1A
[2] = 15 μM ATP, 30° C., histone H1, read-out: IC50 CDK5/p25

Sequence of CDK5/p25 (Q00535 whole entry, species assumed, the tested form may be a part): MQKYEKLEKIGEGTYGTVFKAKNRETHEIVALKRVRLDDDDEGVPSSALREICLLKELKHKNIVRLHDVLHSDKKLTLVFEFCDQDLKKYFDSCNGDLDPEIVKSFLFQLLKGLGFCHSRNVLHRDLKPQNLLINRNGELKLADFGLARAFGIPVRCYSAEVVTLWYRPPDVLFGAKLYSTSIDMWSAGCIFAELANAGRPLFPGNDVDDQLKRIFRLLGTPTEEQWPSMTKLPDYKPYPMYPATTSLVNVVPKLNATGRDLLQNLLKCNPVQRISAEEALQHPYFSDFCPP
Sequence of CDK5/p25 (Q15078 99-307 partner limits assumed, species assumed): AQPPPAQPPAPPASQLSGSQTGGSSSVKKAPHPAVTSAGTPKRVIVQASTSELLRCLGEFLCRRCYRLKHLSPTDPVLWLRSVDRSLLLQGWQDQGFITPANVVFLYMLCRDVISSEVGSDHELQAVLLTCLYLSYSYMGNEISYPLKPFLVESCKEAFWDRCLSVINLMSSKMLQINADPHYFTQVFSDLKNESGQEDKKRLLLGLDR
T2 sequence (P50750 whole entry, the tested form may be a part): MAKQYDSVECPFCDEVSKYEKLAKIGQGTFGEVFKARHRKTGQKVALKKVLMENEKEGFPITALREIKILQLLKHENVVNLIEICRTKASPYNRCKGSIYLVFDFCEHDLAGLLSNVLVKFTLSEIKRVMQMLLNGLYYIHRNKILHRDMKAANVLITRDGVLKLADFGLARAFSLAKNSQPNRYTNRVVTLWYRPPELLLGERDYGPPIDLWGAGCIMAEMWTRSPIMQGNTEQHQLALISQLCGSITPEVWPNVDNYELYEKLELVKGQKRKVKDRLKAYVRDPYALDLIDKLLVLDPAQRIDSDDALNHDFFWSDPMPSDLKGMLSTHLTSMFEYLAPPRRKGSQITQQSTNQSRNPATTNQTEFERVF
T2 sequence (O60563 whole entry partner, the tested form may be a part): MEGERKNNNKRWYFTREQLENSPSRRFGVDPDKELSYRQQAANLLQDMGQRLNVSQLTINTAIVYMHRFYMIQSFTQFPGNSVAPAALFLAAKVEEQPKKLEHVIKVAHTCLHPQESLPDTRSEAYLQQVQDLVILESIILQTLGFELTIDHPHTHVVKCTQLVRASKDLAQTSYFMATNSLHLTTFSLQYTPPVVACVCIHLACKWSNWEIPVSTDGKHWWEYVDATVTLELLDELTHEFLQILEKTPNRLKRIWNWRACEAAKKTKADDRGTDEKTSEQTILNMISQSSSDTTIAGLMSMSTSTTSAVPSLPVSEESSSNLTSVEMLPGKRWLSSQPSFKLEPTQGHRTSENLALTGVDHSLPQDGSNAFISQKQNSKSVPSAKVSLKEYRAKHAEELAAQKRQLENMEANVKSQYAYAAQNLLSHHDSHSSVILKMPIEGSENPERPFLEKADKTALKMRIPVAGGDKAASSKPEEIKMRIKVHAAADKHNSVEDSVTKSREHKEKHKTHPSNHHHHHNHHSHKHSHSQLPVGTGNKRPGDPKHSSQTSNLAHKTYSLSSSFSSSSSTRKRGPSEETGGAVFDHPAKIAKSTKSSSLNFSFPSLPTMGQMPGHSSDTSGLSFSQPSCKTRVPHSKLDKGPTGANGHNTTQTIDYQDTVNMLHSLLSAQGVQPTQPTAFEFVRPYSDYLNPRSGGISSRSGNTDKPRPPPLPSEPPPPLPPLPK

Row | IC50 (CK1δ/ε) | IC50 (DYRK1A; [1]) | IC50 (GSK-3α/β) | IC50 (CDK1/cyclin B) | melting point | IC50 (CDK2/cyclin A) | IC50 (CDK5/p25; [2]) | Compound | IC50 (SH-SY5Y cells) | IC50 (CDK9/cyclin T) | IC50 (DYRK1A) | IC50 (CDK5/p25)
1 | 0.1 µM | 0.032 µM | 0.03 µM | 0.01 µM |  |  |  | CCOc1ccnc2[nH]cc(-c3ccnc(N)n3)c12 [Meriolin 4, 3-[(2-amino)pyrimidin-4-yl]-4-ethoxy-1H-pyrrolo[2,3-b]pyridine] | 0.081 µM |  |  | 
2 |  |  |  |  | > 210 °C |  |  | COc1cc(Br)nc2[nH]cc(-c3ccnc(N)n3)c12 [Meriolin 4n, 3-[(2-amino)pyrimidin-4-yl]-6-bromo-4-methoxy-1H-pyrrolo[2,3-b]pyridine] |  |  |  | 
3 | 0.2 µM | 0.037 µM | 0.025 µM | 0.007 µM |  |  |  | CCCOc1ccnc2[nH]cc(-c3ccnc(N)n3)c12 [Meriolin 5, 3-[(2-amino)pyrimidin-4-yl]-4-propoxy-1H-pyrrolo[2,3-b]pyridine] | 0.026 µM |  |  | 
4 | 0.14 µM |  | 0.021 µM | 0.008 µM |  |  |  | CC(C)Oc1ccnc2[nH]cc(-c3ccnc(N)n3)c12 [Meriolin 6, 3-[(2-amino)pyrimidin-4-yl]-4-(1-methylethoxy)-1H-pyrrolo[2,3-b]pyridine] |  |  |  | 
5 | 100 µM |  | 63 µM | 35 µM |  | > 10 µM |  | COCCOc1ccnc2[nH]cc(-c3ccnc(N)n3)c12 [Meriolin 7, 3-(2-aminopyrimidin-4-yl)-4-(2-methoxyethoxyl)-1H-pyrrolo[2,3-b]pyridine] | > 100 µM |  |  | 
6 | 2.3 µM | 1.2 µM | 4.6 µM | 1.2 µM |  |  |  | Cn1cc(-c2ccnc(N)n2)c2c(O)ccnc21 [Meriolin 8, 3-[(2-amino)pyrimidin-4-yl]-4-hydroxy-1-methyl-1H-pyrrolo[2,3-b]pyridine] | > 30 µM |  |  | 
7 |  |  |  | 25 µM |  |  |  | COc1ccnc2c1c(-c1ccnc(N)n1)cn2C [Meriolin 9, 3-[(2-amino)pyrimidin-4-yl]-4-methoxy-1-methyl-1H-pyrrolo[2,3-b]pyridine] |  |  |  | 
8 | 3 µM | 0.13 µM | 2 µM | 0.24 µM |  |  |  | Nc1nccc(-c2c[nH]c3nccc(Cl)c23)n1 [Meriolin 10, 3-[(2-amino)pyrimidin-4-yl]-4-chloro-1H-pyrrolo[2,3-b]pyridine] | 1.92 µM |  |  | 
9 | 0.6 µM | 1 µM | 7 µM | 1.8 µM |  |  |  | COc1ccnc2[nH]cc(-c3ccnc(SC)n3)c12 [Meriolin 12, 4-methoxy-3-[2-(methylsulfanyl)pyrimidin-4-yl]-1H-pyrrolo[2,3-b]pyridine, reference compound] | > 100 µM |  |  | 
10 |  |  | 1.8 µM |  |  |  |  | Oc1ccnc2[nH]cc(-c3ccncn3)c12 [Meriolin 13, 3-(pyrimidin-4-yl)-4-hydroxy-1H-pyrrolo[2,3-b]pyridine] | 28 µM |  |  | 
11 | 0.6 µM | 0.23 µM | 1.1 µM | 1.3 µM |  |  |  | COc1ccnc2[nH]cc(-c3ccncn3)c12 [Meriolin 14, 4-methoxy-3-(pyrimidin-4-yl)-1H-pyrrolo[2,3-b]pyridine] | 10.2 µM |  |  | 
12 | 0.13 µM | 0.04 µM | 0.0033 µM | 0.0023 µM | > 210 °C | 0.0016 µM | 0.002 µM | Nc1nccc(-c2c[nH]c3nccc(OCc4ccccc4)c23)n1 [Meriolin 15, 3-[(2-amino)pyrimidin-4-yl]-4-(benzyloxy)-1H-pyrrolo[2,3-b]pyridine] | 0.013 µM | 0.0072 µM |  | 
13 | > 0.1 µM | 0.045 µM | 0.006 µM | 0.0022 µM | > 210 °C | 0.0012 µM | 0.003 µM | Nc1nccc(-c2c[nH]c3nccc(OCC4CCCCC4)c23)n1 [Meriolin 16, 3-[(2-amino)pyrimidin-4-yl]-4-(cyclohexylmethoxy)-1H-pyrrolo[2,3-b]pyridine] | 0.022 µM |  |  | 
14 | > 0.1 µM | 0.026 µM | 0.0041 µM | 0.0029 µM | > 210 °C | 0.0021 µM | 0.0021 µM | Nc1nccc(-c2c[nH]c3nccc(OC4CCCCC4)c23)n1 [Meriolin 17, 3-[(2-amino)pyrimidin-4-yl]-4-(cyclohexyloxy)-1H-pyrrolo[2,3-b]pyridine] | 0.027 µM |  |  | 
15 | 1.3 µM | 0.02 µM | 0.082 µM | 0.011 µM |  | 0.005 µM | 0.0045 µM | CCCC#Cc1ccnc2[nH]cc(-c3ccnc(N)n3)c12 [Meriolin 18, 3-[(2-amino)pyrimidin-4-yl]-4-(pent-1-ynyl)-1H-pyrrolo[2,3-b]pyridine] | 0.1 µM |  |  | 
16 | 8.1 µM | 0.056 µM | 1.75 µM | 0.35 µM | > 210 °C | 0.195 µM | 0.2 µM | CCCCCc1ccnc2[nH]cc(-c3ccnc(N)n3)c12 [Meriolin 19, 3-[(2-amino)pyrimidin-4-yl]-4-pentyl-1H-pyrrolo[2,3-b]pyridine] | 13 µM |  |  | 
17 |  |  |  |  | > 210 °C |  |  | Nc1nccc(-c2c[nH]c3nccc(C#Cc4ccccc4)c23)n1 [Meriolin 21, 3-[(2-amino)pyrimidin-4-yl]-4-(phenyleth-1-ynyl)-1H-pyrrolo[2,3-b]pyridine] |  |  |  | 
18 |  | 0.073 µM | 0.8 µM | 0.2 µM | 196 to 198 °C | 0.073 µM | 0.13 µM | Nc1nccc(-c2c[nH]c3nccc(CCc4ccccc4)c23)n1 [Meriolin 22, 3-[(2-amino)pyrimidin-4-yl]-4-phenethyl-1H-pyrrolo[2,3-b]pyridine] | 2.4 µM |  |  | 
19 |  | 0.05 µM | 0.08 µM | 0.01 µM | > 210 °C | 0.009 µM | 0.007 µM | Nc1nccc(-c2c[nH]c3nccc(-c4ccccc4)c23)n1 [Meriolin 23, 3-[(2-amino)pyrimidin-4-yl]-4-phenyl-1H-pyrrolo[2,3-b]pyridine] | 0.088 µM |  |  | 

Row | Compound | IC50 (CK1δ/ε) | IC50 (DYRK1A; [1]) | IC50 (GSK-3α/β) | IC50 (CDK1/cyclin B) | melting point | IC50 (CDK2/cyclin A) | IC50 (CDK5/p25; [2]) | IC50 (SH-SY5Y cells) | IC50 (CDK9/cyclin T) | IC50 (DYRK1A) | IC50 (CDK5/p25)
20 | Nc1nccc(-c2c3c(O)ccnc3n3c(N)nccc23)n1 [Variolin B, reference compound] | 0.005 µM |  | 0.07 µM | 0.06 µM |  | 0.08 µM |  | 0.24 µM | 0.026 µM | 0.08 µM | 0.09 µM
